Data taken from patent US20250073208A1, “IL-6 AND/OR IL-1BETA INHIBITOR” (AGC INC., priority 2022, published 2025).

Assays:
[1] = system: rats with monocrotaline-induced pulmonary hypertension; experiment: Pulmonary histopathological analysis in the monocrotaline-induced pulmonary hypertension rat model; format: in vivo, rat (male Sprague Dawley); settings: 2 mg/kg/day, 3 weeks
Experimental: According to the method described in Abe K, Circ Res, 94: 385-393, 2004, a monocrotaline (MCT)-induced pulmonary hypertension rat model was prepared. Monocrotaline (manufactured by Sigma Ltd. Aldrich) was subcutaneously injected once at a dose of 60 mg/kg to 5- to 6-week-old (body weight 150-200 g) male Sprague Dawley rats (SD rat). The compound of the present invention (KAG-308) was orally administered using a gavage needle at a dose of 1 mg/kg (2 mg/kg/day) twice daily from the day of subcutaneous injection of monocrotaline until the day before measurement (“MCT+KAG-308” in FIG. 1). The same amount of solvent (water for injection) was administered for the same period to the pulmonary hypertension rat model not treated with KAG-308 (“MCT” in FIG. 1). The normal control group, which was not administered monocrotaline and KAG-308, was of the same age (“Normal” in FIG. 1). Three weeks after monocrotaline injection, right ventricular systolic pressure, systemic arterial pressure, heart rate number, and right-to-left ventricular weight ratio (right ventricular hypertrophy) were measured. Under isoflurane inhalation anesthesia, right ventricular systolic pressure was measured by the right heart catheterization method. Using a conductance catheter, systemic arterial pressure and heart rate were measured from the carotid artery. After the measurement, the rats were euthanized with a lethal dose of intravenous pentobarbital, and the hearts were excised. The weight of the left ventricle (LV) including the ventricular septum (Sep) relative to the right ventricle (RV) was measured, and the ratio was used as an index of right ventricular hypertrophy. […]
Pulmonary arteries with an outer diameter of 50 to 100 μm were analyzed, and the mean medial wall thickness was measured in a blind manner (mean medial wall thickness=(outer diameter−inner diameter)/outer diameter).
Muscularization of small pulmonary arteries with an outer diameter of 50 μm or less was analyzed by immunostaining with anti-α-SMA (smooth muscular actin) antibody. According to the percentage of smooth muscle in the total circumference of the small pulmonary artery, they were defined as Non muscular (<25%), Partially muscular (25-75%), and Totally muscular (>75%), and at least 70 small pulmonary arteries of each specimen were evaluated in a blinded method.
Macrophages were measured by immunostaining using anti-CD68 antibody. The device used was a laser scanning microscope FV1200 IX83 (OLYMPUS), and observation was performed at a magnification of 400×, and CD68-positive cells were counted in 15 randomly selected fields mainly of small blood vessels.

[2] = system: rats with monocrotaline-induced pulmonary hypertension; experiment: Monocrotaline (MCT)-induced pulmonary hypertension rat model: haemodynamics and right ventricular hypertrophy; format: in vivo; settings: 3 weeks
Experimental: According to the method described in Abe K, Circ Res, 94: 385-393, 2004, a monocrotaline (MCT)-induced pulmonary hypertension rat model was prepared. Monocrotaline (manufactured by Sigma Ltd. Aldrich) was subcutaneously injected once at a dose of 60 mg/kg to 5- to 6-week-old (body weight 150-200 g) male Sprague Dawley rats (SD rat). The compound of the present invention (KAG-308) was orally administered using a gavage needle at a dose of 1 mg/kg (2 mg/kg/day) twice daily from the day of subcutaneous injection of monocrotaline until the day before measurement (“MCT+KAG-308” in FIG. 1). The same amount of solvent (water for injection) was administered for the same period to the pulmonary hypertension rat model not treated with KAG-308 (“MCT” in FIG. 1). The normal control group, which was not administered monocrotaline and KAG-308, was of the same age (“Normal” in FIG. 1). Three weeks after monocrotaline injection, right ventricular systolic pressure, systemic arterial pressure, heart rate number, and right-to-left ventricular weight ratio (right ventricular hypertrophy) were measured. Under isoflurane inhalation anesthesia, right ventricular systolic pressure was measured by the right heart catheterization method. Using a conductance catheter, systemic arterial pressure and heart rate were measured from the carotid artery. After the measurement, the rats were euthanized with a lethal dose of intravenous pentobarbital, and the hearts were excised. The weight of the left ventricle (LV) including the ventricular septum (Sep) relative to the right ventricle (RV) was measured, and the ratio was used as an index of right ventricular hypertrophy.

[3] = system: IL-6 mRNA; experiment: Quantitative RT-PCR analysis of IL-6 mRNA in whole lung of monocrotaline-induced pulmonary hypertension rats; format: in vivo, rat (male Sprague Dawley); settings: 2 mg/kg/day, 3 weeks, FIG. 7 left
[4] = system: IL-1β mRNA; experiment: Quantitative RT-PCR analysis of IL-1β mRNA in whole lung of monocrotaline-induced pulmonary hypertension rats; format: in vivo, rat (male Sprague Dawley); settings: 2 mg/kg/day, 3 weeks, FIG. 7 right, result in words

Cc1cccc([C@@H](C)[C@H](O)/C=C/[C@@H]2[C@@H]3[C@H](C[C@H]2O)O/C(=C\CCCc2nnn[nH]2)C3(F)F)c1 [KAG-308, 4-[(Z)-(1S,5R,6R,7R)-6-[(1E,3R,4R)-3-hydroxy-4-(m-tolyl)-1-pentenyl]-7-hydroxy-2-oxa-4,4-difluoro-bicyclo[3.3.0]octan-3-ylidene]-1-(tetrazol-5-yl)butane]
increase in infiltration of inflammatory CD68-positive macrophages ([1]; lung, anti-CD68 immunostaining, 15 fields at 400×, FIG. 6): significantly suppressed | increase in average medial wall thickness of pulmonary artery ([1]; pulmonary arteries of outer diameter 50 to 100 μm, EVG staining, FIG. 4): significantly suppressed | non-muscular percentage of small pulmonary arteries ([1]; small pulmonary arteries of outer diameter 50 μm or less, anti-α-SMA immunostaining, non muscular <25%, FIG. 5): increased | totally muscular percentage of small pulmonary arteries ([1]; small pulmonary arteries of outer diameter 50 μm or less, anti-α-SMA immunostaining, totally muscular >75%, FIG. 5): decreased | increase in right ventricular systolic pressure (RVSP) ([2]; 1 mg/kg orally twice daily (2 mg/kg/day), FIG. 2 left): significantly suppressed | increase in weight ratio RV/LV+Sep (right ventricular hypertrophy) ([2]; 1 mg/kg orally twice daily (2 mg/kg/day), FIG. 2 right): significantly suppressed | left ventricular systolic pressure ([2]; 2 mg/kg/day orally, FIG. 3 left): without affecting | heart rate ([2]; 2 mg/kg/day orally, FIG. 3 right): without affecting | suppression of the increase in mRNA expression level of IL-6 [3]: 89% | increase in mRNA expression level of IL-6 ([3]; result in words): significantly suppressed | increase in mRNA expression level of IL-1β [4]: significantly suppressed
